Among the data in US8815864B2, “Indanyloxydihydrobenzofuranylacetic acids” (Boehringer Ingelheim International GmbH, priority 2012, dated 2014) are EC50 values, retold here.

The test deals with human GPR40 receptor (Homo sapiens, UniProt O14842). Briefly: IP1 accumulation measurements using the IPOne assay system. Type of test: cell-based. Particulars: 1321N1 cells stably expressing human GPR40; stimulation 1 h at 37° C. The procedure: IP1 accumulation measurements using the IPOne assay system—1321N1 cells stably expressing human GPR40 receptor (Euroscreen, Belgium) are seeded 24 h before the assay in white 384-well plates in culture medium containing 10% FCS, 1% Na-Pyruvate and 400 μg/mL G418. IP1 is assayed according to the manufacturer's description (Cisbio Bioassays, France). In brief, the assay is started by substitution of the culture medium by stimulation buffer (Hepes 10 mM, CaCl2 1 mM, MgCl2 0.5 mM, KCl 4.2 mM, NaCl 146 mM, glucose 5.5 mM and LiCl 50 mM, pH 7.4). Cells are stimulated for 1 h at 37° C., 5% CO2 by addition of the compounds that are diluted in stimulation buffer containing LiCl. Assays are stopped by adding HTRF-conjugates (IP1-d2 and Anti-IP1 cryptate Tb) and lysis buffer, provided by the manufacturer. After an incubation time of 1 h at room temperature plates are measured using an EnVision™, Perkin Elmer. The obtained fluorescence ratios at 665/615 […] are then used to calculate the pEC50 values using Assay Explorer 3.3 Software (Accelrys, Inc.) by interpolation using an IP1 reference curve and subsequent sigmoidal curve fitting allowing for a variable hill slope.
Sequence of human GPR40 receptor (O14842 whole entry): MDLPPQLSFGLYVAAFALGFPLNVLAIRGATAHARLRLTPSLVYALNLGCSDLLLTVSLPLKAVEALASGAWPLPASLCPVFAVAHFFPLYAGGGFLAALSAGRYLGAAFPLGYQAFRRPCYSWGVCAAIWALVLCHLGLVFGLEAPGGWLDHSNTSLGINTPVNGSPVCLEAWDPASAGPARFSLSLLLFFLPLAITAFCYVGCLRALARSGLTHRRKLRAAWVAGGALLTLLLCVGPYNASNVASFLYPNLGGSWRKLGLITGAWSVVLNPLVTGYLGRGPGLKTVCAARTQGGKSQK

As usually defined, the EC50 is the concentration that produces a half-maximal response. High values mean weaker potency, low ones greater potency. On to `O=C(O)C[C@@H]1COc2cc(O[C@@H]3CCc4c(Oc5ccnc(C(F)(F)F)c5)ccc(F)c43)ccc21` [Example 32, {(S)-6-[(R)-7-Fluoro-4-(2-trifluoromethyl-pyrid-4-yloxy)-indan-1-yloxy]-2,3-dihydro-benzofuran-3}-acetic acid], for which the EC50 was determined as 6 nM.
In the case of `O=C(O)C[C@@H]1COc2cc(O[C@@H]3CCc4c(Oc5ncc(F)cn5)ccc(F)c43)ccc21` [Example 33, {(S)-6-[(R)-7-Fluoro-4-(5-fluoro-pyrimid-2-yloxy)-indan-1-yloxy]-2,3-dihydro-benzofuran-3-yl}-acetic acid] it was 31 nM; in that of `COc1ccc(Oc2ccc(F)c3c2CC[C@H]3Oc2ccc3c(c2)OC[C@H]3CC(=O)O)cn1` [Example 34, {(S)-6-[(R)-7-Fluoro-4-(2-methoxy-pyrid-5-yloxy)-indan-1-yloxy]-2,3-dihydro-benzofuran-3-yl}-acetic acid], 5 nM; in that of `COc1ncc(Oc2ccc(F)c3c2CC[C@H]3Oc2ccc3c(c2)OC[C@H]3CC(=O)O)cn1` [Example 35, {(S)-6-[(R)-7-Fluoro-4-(2-methoxy-pyrimid-5-yloxy)-indan-1-yloxy]-2,3-dihydro-benzofuran-3-yl}-acetic acid], 79 nM.
For `COc1cc(Oc2ccc(F)c3c2CC[C@H]3Oc2ccc3c(c2)OC[C@H]3CC(=O)O)ccn1` [Example 36, {(S)-6-[(R)-7-Fluoro-4-(2-methoxy-pyrid-4-yloxy)-indan-1-yloxy]-2,3-dihydro-benzofuran-3-yl}-acetic acid] the value was 4 nM; for `COc1cc(Oc2ccc(F)c3c2CC[C@H]3Oc2ccc3c(c2)OC[C@H]3CC(=O)O)ccc1C#N` [Example 37, {(S)-6-[(R)-4-(4-Cyano-3-methoxy-phenoxy)-7-fluoro-indan-1-yloxy]-2,3-dihydro-benzofuran-3-yl}-acetic acid], 5 nM; for `Cn1ccc2cc(Oc3ccc(F)c4c3CC[C@H]4Oc3ccc4c(c3)OC[C@H]4CC(=O)O)ccc21` [Example 38, {(S)-6-[(R)-7-Fluoro-4-(1-methyl-1H-indol-5-yloxy)-indan-1-yloxy]-2,3-dihydro-benzofuran-3-yl}-acetic acid], 6 nM.
As for `O=C(O)C[C@@H]1COc2cc(O[C@@H]3CCc4c(Oc5cccc6cccnc56)ccc(F)c43)ccc21` [Example 39, {(S)-6-[(R)-7-Fluoro-4-(Quinolin-8-yloxy)-indan-1-yloxy]-2,3-dihydro-benzofuran-3-yl}-acetic acid], a half-maximal response (EC50) required 21 nM.
For `O=C(O)C[C@@H]1COc2cc(O[C@@H]3CCc4c(Oc5ccc6ccccc6n5)ccc(F)c43)ccc21` [Example 40, {(S)-6-[(R)-7-Fluoro-4-(Quinolin-2-yloxy)-indan-1-yloxy]-2,3-dihydro-benzofuran-3-yl}-acetic acid] the value was 22 nM.
For `N#Cc1ccc(Oc2ccc(F)c3c2CC[C@H]3Oc2ccc3c(c2)OC[C@H]3CC(=O)O)c(C#N)c1` [Example 41, {(S)-6-[(R)-4-(2,4-Dicyano-phenoxy)-7-fluoro-indan-1-yloxy]-2,3-dihydro-benzofuran-3-yl}-acetic acid] the value was 17 nM; for `Cn1cnc2cc(Oc3ccc(F)c4c3CC[C@H]4Oc3ccc4c(c3)OC[C@H]4CC(=O)O)ccc21` [Example 42, {(S)-6-[(R)-7-Fluoro-4-(1-methyl-1H-benzoimidazol-5-yloxy)-indan-1-yloxy]-2,3-dihydro-benzofuran-3-yl}-acetic acid], 891 nM.
As to `O=C(O)C[C@@H]1COc2cc(O[C@@H]3CCc4c(Oc5ncc6ccccc6n5)ccc(F)c43)ccc21` [Example 43, {(S)-6-[(R)-7-Fluoro-4-(Quinazolin-2-yloxy)-indan-1-yloxy]-2,3-dihydro-benzofuran-3-yl}-acetic acid], the response was half-maximal at 34 nM (EC50).
With `COc1ccc(Oc2ccc(F)c3c2CC[C@H]3Oc2ccc3c(c2)OC[C@H]3CC(=O)O)nc1` [Example 44, {(S)-6-[(R)-7-Fluoro-4-(5-methoxy-pyrid-2-yloxy)-indan-1-yloxy]-2,3-dihydro-benzofuran-3-yl}-acetic acid], the EC50 turned out to be 19 nM.
Molecule `Cn1ncc2cc(Oc3ccc(F)c4c3CC[C@H]4Oc3ccc4c(c3)OC[C@H]4CC(=O)O)ccc21` [Example 45, {(S)-6-[(R)-7-Fluoro-4-(1-methyl-1H-indazol-5-yloxy)-indan-1-yloxy]-2,3-dihydro-benzofuran-3-yl}-acetic acid] had an EC50 of 7 nM. Against the preceding molecule, the EC50 is about 2.7-fold lower.
With `Cn1ncc2ccc(Oc3ccc(F)c4c3CC[C@H]4Oc3ccc4c(c3)OC[C@H]4CC(=O)O)cc21` [Example 46, {(S)-6-[(R)-7-Fluoro-4-(1-methyl-1H-indazol-6-yloxy)-indan-1-yloxy]-2,3-dihydro-benzofuran-3-yl}-acetic acid], a half-maximal effect (EC50) was put at 3 nM.
`Cc1cc2c(cnn2C)cc1Oc1ccc(F)c2c1CC[C@H]2Oc1ccc2c(c1)OC[C@H]2CC(=O)O` [Example 47, {(S)-6-[(R)-7-Fluoro-4-(1,6-dimethyl-1H-indazol-5-yloxy)-indan-1-yloxy]-2,3-dihydro-benzofuran-3-yl}-acetic acid] registered an EC50 of 26 nM.
In turn, `Cc1nc2cc(Oc3ccc(F)c4c3CC[C@H]4Oc3ccc4c(c3)OC[C@H]4CC(=O)O)ccc2s1` [Example 48, {(S)-6-[(R)-7-Fluoro-4-(2-methyl-benzothiazol-5-yloxy)-indan-1-yloxy]-2,3-dihydro-benzofuran-3-yl}-acetic acid] showed an EC50 of 7 nM.
For `Cc1cc(Oc2ccc(F)c3c2CC[C@H]3Oc2ccc3c(c2)OC[C@H]3CC(=O)O)cc(C)c1C#N` [Example 49, {(S)-6-[(R)-4-(4-Cyano-3,5-dimethyl-phenoxy)-7-fluoro-indan-1-yloxy]-2,3-dihydro-benzofuran-3-yl}-acetic acid] the value was 12 nM.
`N#Cc1ccc(Br)cc1Oc1ccc(F)c2c1CC[C@H]2Oc1ccc2c(c1)OC[C@H]2CC(=O)O` [Example 50, {(S)-6-[(R)-4-(5-Bromo-2-cyano-phenoxy)-7-fluoro-indan-1-yloxy]-2,3-dihydro-benzofuran-3-yl}-acetic acid] showed an EC50 of 6 nM.
The molecule `N#Cc1cc(F)c(Oc2ccc(F)c3c2CC[C@H]3Oc2ccc3c(c2)OC[C@H]3CC(=O)O)c(F)c1` [Example 51, {(S)-6-[(R)-4-(4-cyano-2,6-difluoro-phenoxy)-7-fluoro-indan-1-yloxy]-2,3-dihydro-benzofuran-3-yl}-acetic acid] displayed an EC50 of 18 nM.
Consider `COc1cc(C#N)ccc1Oc1ccc(F)c2c1CC[C@H]2Oc1ccc2c(c1)OC[C@H]2CC(=O)O` [Example 52, {(S)-6-[(R)-4-(4-Cyano-2-methoxy-phenoxy)-7-fluoro-indan-1-yloxy]-2,3-dihydro-benzofuran-3-yl}-acetic acid], for which the EC50 amounted to 6 nM.
In the case of `Cc1c(Oc2ccc(F)c3c2CC[C@H]3Oc2ccc3c(c2)OC[C@H]3CC(=O)O)ccc2c1cnn2C` [Example 53, {(S)-6-[(R)-7-Fluoro-4-(1,4-dimethyl-1H-indazol-5-yloxy)-indan-1-yloxy]-2,3-dihydro-benzofuran-3-yl}-acetic acid], the EC50 came to 69 nM.
Take `N#Cc1ccc(F)c(Oc2ccc(F)c3c2CC[C@H]3Oc2ccc3c(c2)OC[C@H]3CC(=O)O)c1` [Example 54, {(S)-6-[(R)-4-(5-Cyano-2-fluoro-phenoxy)-7-fluoro-indan-1-yloxy]-2,3-dihydro-benzofuran-3-yl}-acetic acid]: a half-maximal response (EC50) required 29 nM.
